Experimental data from PMC4545913, “Dual EZH2 and EHMT2 histone methyltransferase inhibition increases biological efficacy in breast cancer cells” (Clinical Epigenetics, 2015).
Blank lines part the entries; values can stand above or below the molecule they belong to.

What was measured:
FBXO32 = experiment: qRT-PCR of FBXO32 mRNA in MDA-MB-231 cells; assay type: cell-based; conditions: for fold induction at 10 µM: MDA-MB-231, single dose 10 μM
Experimental: (§1) Following compound treatment of MDA-MB-231 for 48 h (in 6-well plates), media was removed and 1.5 ml of TRIzol (Invitrogen) was added directly to lyse cells and RNA was isolated according to the manufacturer’s instructions. Reverse transcription was done using the SuperScript III First-Strand Synthesis System (Invitrogen) according to the manufacturer’s instructions. Each measurement was done in triplicate, and the List of Primers can be found in Additional file 2: Table S1. For normalisation, we have used GAPDH and RNA pol II. Experiments were also done with the ‘Fast Sybr Green Cell-to-CT™-Kit’ according to the manufacturer’s instructions (Applied Biosystem). Fifteen thousand cells per 96 well were plated, and after 24 h, treated with compounds at various concentrations.
(§2) For qRT-PCR measurements the 2x iQ SYBR Green Supermix (Bio-Rad), 200nM Primers and 0.4μl of cDNA /per 20μl reaction was used. The measurement was done in low-white 96-well plates (Bio-Rad) on a CFX96 Real-time System/C1000 Thermal Cycler (Bio-Rad) with the following protocol: 95°C for 3’; 95°C for 10’’, 56°C for 10’’, 72°C for 30’’ 42 cycles followed by a melting curve from 72°C to 95°C.

EZH2 [1] = experiment: qRT-PCR of EZH2 mRNA in MDA-MB-231 cells; assay type: cell-based; conditions: Homo sapiens, 48 h, normalised against GAPDH, read-out: EZH2 RNA level, fold increase compared to the mock treated sample; for fold induction at 10 µM: MDA-MB-231, single dose 10 μM
Experimental: as §1, §2

KRT17 = experiment: qRT-PCR of KRT17 mRNA in MDA-MB-231 cells; assay type: cell-based; conditions: for fold induction at 10 µM: MDA-MB-231, single dose 10 μM
Experimental: as §1, §2

JMJD3 = experiment: qRT-PCR of JMJD3 mRNA in MDA-MB-231 cells; assay type: cell-based; conditions: for fold induction at 10 µM: MDA-MB-231, single dose 10 μM
Experimental: as §1, §2

[2] = biological target: trimeric PRC2 complex (EZH2:EED:SUZ12) (Homo sapiens, UniProt O75530+Q15022+Q15910); experiment: PRC2 enzymatic assay (SPA-type), biotinylated-H3 (21–44) peptide substrate; assay type: biochemical; conditions: EZH2:EED:SUZ12, biotinylated-H3 (21–44) peptide substrate
Excerpt: A trimeric PRC2 complex (EZH2:EED:SUZ12) was employed in this assay, along with a biotinylated-H3 (21–44) peptide substrate. […] Since the peptide substrates used in these assays are poor models for the complex and dynamic structure of the chromatin substrate in cells and since the only minimal number of PRC2 proteins (EZH2:EED:SUZ12) required for enzymatically active EZH2 were employed in the PRC2 assay, care should be taken in the over interpretation of this in vitro inhibitory data.

SPINK1 = experiment: qRT-PCR of SPINK1 mRNA in MDA-MB-231 cells; assay type: cell-based
Experimental: as §1, §2

H3K27me3 and H3K9me3 = experiment: Western analysis of global histone marks in MDA-MB-231 cells; assay type: cell-based; conditions: range of doses
Experimental: MDA-MB-231 cells seeded in 6 well plates at a cell density of 3 x 10^5 were treated with HKMTI-1-005 (1–7.5uM) for 48 h. Following lysis in Triton Extraction Buffer (TEB, PBS containing 0.5 % Triton ×100 (v/v), 1/1000 protease inhibitor), nuclei were re-suspended in 0.2 N HCL at a density of 4 x 10^7 nuclei per millilitre and incubated overnight at 4 °C to acid-extract the histones, before being centrifuged at 6500g for 10 min at 4 °C. Protein concentration was determined using the Bradford assay. H3K27me3, H3K9me3, H3K9me2, H3K9me and total H3 protein expression levels in the histone extract samples were determined using Western blot analysis using H3K27me3 (1:1000; Abcam), H3K9me3 (1:1000; Abcam), H3K9me (1:1000) and H3 (1:2000; Abcam) antibodies. After washing, the membrane was incubated with a horseradish peroxidase-labelled secondary antibody (1 h, room temperature). The membrane was incubated for 1 min with 5 mL of Pierce ECL Western blotting substrate (Thermo Scientific). Images were captured using Konica Minolta SRX101A Tabletop X-Ray film processor.

EZH2 [3] = conditions: cited from earlier work
MDA-MB-231 cells [4] = experiment: MTT cell viability assay; assay type: cell-based; conditions: Homo sapiens
Experimental: Fig. 1 MTT and mRNA levels in MDA-MB-231 cells after pharmacological inhibition and siRNA knockdown of EZH2 and EHMT2(G9a), individually and in combination. a Expression levels of KRT17, FBX032, JMJD3, EZH2, SPINK1 and EHMT2 were measured by qRT-PCR in the MDA-MB-231 cell line 48 h after transfection with siRNAs targeting EZH2 and EHMT2, both individually and in combination. All measurements were normalised to the fold-change (relative to GAPDH) in the mock transfection control. Error bars represent the mean ± SD of experiment performed in technical triplicate. b Expression levels of KRT17, FBX032, JMJD3 and SPINK1 were measured by qRT-PCR in the MDA-MB-231 cell line treated for 48 h with GSK343, UNC0638, and UNC0638 (at 7.5 μM) with increasing doses of GSK343. Each group has been compared to the untreated sample following normalisation to GAPDH. Error bars represent the mean ± SD of experiment performed in technical triplicate. c MTT assay for cell viability of MDA-MB-231 cells after treatment. MDA-MB-231 cells were seeded in 96 well plates. After 24 h, increasing doses of GSK343, UNC0638 or combination treatments (1, 2.5, 5, 7.5, 10 and 15 μM) were added to cells. Control was media with 0.5 % DMSO. Cell viability was measured by MTT assay after a 48-h treatment and a 24-h proliferation period. Error bars represent the mean ± SEM of five independent repeats
(§3) For clonogenic assays, cells were treated with compound for 48 h, media were removed and replaced with fresh media for a further 12 days to measure colony formation. For cell viability assays, lymphoma cells were plated at 20,000 cells in 200 μl per well in U-bottom 96 well plates in RPMI medium +20 % FCS. Cells were re-suspended 48 h later, diluted 10-fold in PBS + propidium iodide (PI) and the concentration of PI negative cells was counted using an Attune flow cytometer with autosampler. Breast cancer cells were seeded at a density of 10,000 cells/well in a sterile 96 clear-well plate with 150 μl of DMEM (+10 % FCS and 2 mM L-Glutamine). Each compound treatment was performed in triplicate for 72 h at concentrations of 100 nM and 1, 5, 10 and 50 μM in 100 μl of full-medium. After 72 h, 20 μl of MTT solution (3 mg of MTT Formazan, Sigma/1 ml PBS) was added to the medium and incubated for 4 h at 37 °C in a CO2 incubator. The MTT-product was solubilised with 100 μl DMSO, and for 1 h, incubated in the dark at room temperature. The optical density was read at 570 nm with PHERAstar.

MDA-MB-231 cells [5] = experiment: Clonogenic growth assay; assay type: cell-based; conditions: Homo sapiens; MDA-MB-231, 48 h treatment then 12 days in fresh media
Experimental: as §3

[6] = Homo sapiens, 48 h, normalised against GAPDH, read-out: FBXO32 RNA level, fold increase compared to the mock treated sample
[7] = Homo sapiens, 48 h, normalised against GAPDH, read-out: KRT17 RNA level, fold increase compared to the mock treated sample
[8] = Homo sapiens, 48 h, normalised against GAPDH, read-out: JMJD3 RNA level, fold increase compared to the mock treated sample
[9] = MDA-MB-231, 48 h, single agents 1–15 μM, combination UNC0638 at 7.5 μM with increasing doses of GSK343

Chain of trimeric PRC2 complex (EZH2:EED:SUZ12) (Q15910 whole entry): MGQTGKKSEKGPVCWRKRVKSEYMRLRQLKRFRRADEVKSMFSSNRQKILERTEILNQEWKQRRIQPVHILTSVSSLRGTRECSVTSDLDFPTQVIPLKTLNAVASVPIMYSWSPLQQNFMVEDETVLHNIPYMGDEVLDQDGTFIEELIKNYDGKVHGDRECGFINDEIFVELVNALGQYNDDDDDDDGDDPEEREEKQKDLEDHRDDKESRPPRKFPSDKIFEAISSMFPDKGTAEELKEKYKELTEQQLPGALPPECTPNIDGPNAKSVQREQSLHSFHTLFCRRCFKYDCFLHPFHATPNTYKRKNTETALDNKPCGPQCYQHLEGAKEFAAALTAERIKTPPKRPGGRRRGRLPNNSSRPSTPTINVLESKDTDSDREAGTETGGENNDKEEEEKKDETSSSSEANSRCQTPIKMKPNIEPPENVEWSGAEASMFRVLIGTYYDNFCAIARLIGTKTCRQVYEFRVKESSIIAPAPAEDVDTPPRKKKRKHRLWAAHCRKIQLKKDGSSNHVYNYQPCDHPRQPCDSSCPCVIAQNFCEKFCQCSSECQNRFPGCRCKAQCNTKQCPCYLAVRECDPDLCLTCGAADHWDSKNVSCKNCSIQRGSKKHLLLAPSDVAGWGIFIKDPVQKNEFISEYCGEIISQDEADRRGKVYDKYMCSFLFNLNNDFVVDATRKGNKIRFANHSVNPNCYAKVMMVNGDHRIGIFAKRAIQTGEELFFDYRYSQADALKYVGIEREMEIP
Chain of trimeric PRC2 complex (EZH2:EED:SUZ12) (O75530 whole entry partner): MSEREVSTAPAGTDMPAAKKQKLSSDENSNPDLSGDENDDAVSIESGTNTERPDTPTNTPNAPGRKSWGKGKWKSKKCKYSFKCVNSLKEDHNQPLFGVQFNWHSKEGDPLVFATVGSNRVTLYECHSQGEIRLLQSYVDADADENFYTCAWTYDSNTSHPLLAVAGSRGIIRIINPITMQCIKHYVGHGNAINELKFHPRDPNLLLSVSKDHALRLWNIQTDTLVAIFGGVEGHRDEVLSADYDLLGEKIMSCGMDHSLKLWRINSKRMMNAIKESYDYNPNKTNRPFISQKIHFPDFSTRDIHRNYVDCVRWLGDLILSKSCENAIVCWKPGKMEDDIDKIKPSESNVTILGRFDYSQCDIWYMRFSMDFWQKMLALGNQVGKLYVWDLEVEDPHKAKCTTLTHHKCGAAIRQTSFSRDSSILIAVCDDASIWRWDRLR
Chain of trimeric PRC2 complex (EZH2:EED:SUZ12) (Q15022 whole entry partner): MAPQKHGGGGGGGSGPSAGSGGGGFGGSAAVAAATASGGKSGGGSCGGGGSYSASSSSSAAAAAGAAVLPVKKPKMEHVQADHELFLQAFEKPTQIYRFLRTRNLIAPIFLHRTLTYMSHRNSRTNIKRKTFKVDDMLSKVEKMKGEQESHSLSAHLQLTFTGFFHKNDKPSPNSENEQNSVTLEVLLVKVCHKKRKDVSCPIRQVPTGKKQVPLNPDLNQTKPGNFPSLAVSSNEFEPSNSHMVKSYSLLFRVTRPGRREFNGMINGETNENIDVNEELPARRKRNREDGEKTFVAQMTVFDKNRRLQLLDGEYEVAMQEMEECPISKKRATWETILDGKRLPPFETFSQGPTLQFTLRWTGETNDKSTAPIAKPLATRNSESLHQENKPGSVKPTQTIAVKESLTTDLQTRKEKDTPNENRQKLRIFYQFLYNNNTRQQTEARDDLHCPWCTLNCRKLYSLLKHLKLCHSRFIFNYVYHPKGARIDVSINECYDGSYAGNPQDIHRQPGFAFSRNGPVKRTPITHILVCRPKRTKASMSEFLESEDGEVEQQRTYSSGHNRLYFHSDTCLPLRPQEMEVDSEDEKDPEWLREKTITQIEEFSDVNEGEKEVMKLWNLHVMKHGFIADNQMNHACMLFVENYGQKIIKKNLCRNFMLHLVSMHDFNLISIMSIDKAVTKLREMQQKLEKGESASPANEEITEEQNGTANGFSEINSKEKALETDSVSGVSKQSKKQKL

Compound: COc1cc2nc(N3CCCC(CO)C3)nc(NC3CCN(C)CC3)c2cc1OC (stereo not drawn) [HKMTI-1-012]
fold induction at 10 µM (FBXO32; [6]): 1.06
fold induction at 10 µM (EZH2 [1]): 1.38
fold induction at 10 µM (KRT17; [7]): 1.32
fold induction at 10 µM (JMJD3; [8]): 0.9

Compound: COc1cc2nc(N3CCCN(C)CC3)nc(NCc3ccccn3)c2cc1OC [HKMTI-1-013]
fold induction at 10 µM (FBXO32; [6]): 0.93
fold induction at 10 µM (EZH2 [1]): 0.13
fold induction at 10 µM (KRT17; [7]): 0.78
fold induction at 10 µM (JMJD3; [8]): 0.87

IC50 [2]: 16 µM
Compound: COc1cc2nc(N3CCCCC3)nc(NC3CCN(Cc4ccccc4)CC3)c2cc1OC [HKMTI-1-022]
SPINK1 expression upon treatment (SPINK1; MDA-MB-231, multiple doses and time points): increased

IC50 (MDA-MB-231 cells [4]; MDA-MB-231 (Table 2), read-out: Cell viability (MTT) IC50): 8.2 µM
IC50 (MDA-MB-231 cells [4]; MDA-MB-231, MTT, 48-h treatment and 24-h proliferation period (Fig. 1c), read-out: Cell viability IC50 (calculated)): 9 µM
IC50 (MDA-MB-231 cells [5]): 1.1 µM
Compound: COc1cc2c(NC3CCN(C(C)C)CC3)nc(C3CCCCC3)nc2cc1OCCCN1CCCC1 [UNC0638, reference compound]
Change in SPINK1 mRNA level (SPINK1; [9]): not significantly altered
Global levels of H3K27me3 and H3K9me3 (Western) (H3K27me3 and H3K9me3): minor decrease
EZH2 inhibition in biochemical assays (EZH2 [3]): not to significantly inhibit EZH2
fold induction at 7.5 µM (FBXO32; Homo sapiens, 48 h, MDA-MB-231, single dose 7.5 μM, normalised against GAPDH, read-out: FBXO32 RNA level, fold increase compared to the mock treated sample): 5.5
Change in FBXO32 mRNA level (FBXO32; [9]): dose-dependent upregulation
fold induction at 7.5 µM (EZH2 [1]; MDA-MB-231, single dose 7.5 μM): 0.4
fold induction at 7.5 µM (KRT17; Homo sapiens, 48 h, MDA-MB-231, single dose 7.5 μM, normalised against GAPDH, read-out: KRT17 RNA level, fold increase compared to the mock treated sample): 1.1
Change in KRT17 mRNA level (KRT17; [9]): not significantly altered
fold induction at 7.5 µM (JMJD3; Homo sapiens, 48 h, MDA-MB-231, single dose 7.5 μM, normalised against GAPDH, read-out: JMJD3 RNA level, fold increase compared to the mock treated sample): 3.4
Change in JMJD3 mRNA level (JMJD3; [9]): dose-dependent upregulation

Compound: COc1cc2c(NC3CCN(C(C)C)CC3)nc(N3CCC(F)(F)CC3)nc2cc1OCCCN1CCCC1 [UNC0642]
EZH2 inhibition in biochemical assays (EZH2 [3]): not to significantly inhibit EZH2
